Laboratory results as given in patent US20090068169A1, “2,4,6-triamino-s-triazine-based compounds which bind to the tail (fc) portion of immunoglobulins and their use” (priority 2004, published 2009).
Marks after values point to notes of the source that are not given here.

How the values were obtained:
[1] = target: T1, Fc portion of human IgG; assay: Competitive protein A binding ELISA; settings: for IC50: inhibition of binding of protein A to HRP-human IgG, assay in PBS; for binding activity, in words: refers to Table 1, bis-aminoanilino arrangement
T1 construct: fused on or other part: horseradish peroxidase chemically conjugated to the IgG (detection label)
Method: The competitive protein A binding ELISA assay was performed on a 96-well plate MAXISORP® surface to enhance the binding of protein A to the bottom of the plate. The wells were coated with 100 μL of protein A (0.8 μg) and incubated overnight at 4° C. After incubation, unbound protein A was removed by three washes with phosphate buffer saline (PBS). The plate was then incubated with 100 μL/well of a 2% solution of bovine serum albumin (BSA) for 1 h at 37° C. to block non specific protein binding. After incubation, the plate was washed three times with PBS. 50 μL of compound or protein A, diluted in PBS or PBS-20% DMSO at appropriate concentration, were added to the wells followed by addition of 50 μL of peroxidase-conjugated human IgG (HRP-IgG). After 1 h incubation at 37° C., the plate was washed three times with PBS to remove unbound HRP-IgG. […] The plate was then read at 405 nm on a EL 800, universal microplate reader (Bio-Tek). Data was analyzed in Microsoft Excel and the concentration of compound which inhibits 50% binding of protein A (IC50) was calculated using Prism software.

[2] = system: oxazolone-induced delayed-type hypersensitivity (DTH) in mice; assay: Oxazolone-induced delayed-type hypersensitivity (DTH); type: in vivo; settings: intravenous; for inhibition of the inflammation after the second challenge of oxazolone: FIG. 2, second challenge; for Activity (ear thickness inhibition) First Challenge: first oxazolone challenge; for Activity (ear thickness inhibition) First Challenge / Activity (ear thickness inhibition) Second Challenge: n.s. = non significant effect; for Activity (ear thickness inhibition) Second Challenge: second oxazolone challenge
Method: Compounds were tested for their ability to treat oxazolone-induced delayed-type hypersensitivity (DTH) in mice. On day 0, mice were sensitized with 100 μL of oxazolone in 5% acetone. On day 0, 1 and 2, mice were treated by intravenous administration of the vehicle (control) or methotrexate (MTX; positive control) or the compound at 50 mg/kg (compound 3) or 25 mg/kg (compound 1 or 10). Mice were challenged with an application of 50 μL of oxazolone on the surface of the right ear (first challenge, day 3; second challenge, day 10). Ear thickness was measured on day 4 to day 7, and on day 11 to 14. Redness and crust formation was also observed. Mice were sacrificed on day 14. TDTH (CD4) cells play an important role in regulating the intensity of the DTH response. Compounds may exert an inhibitory influence on the DTH response through its inhibition of T-cell activation and DNA, RNA and/or protein synthesis.

[3] = system: oxazolone-induced delayed-type hypersensitivity (DTH) in mice; assay: as above; type: in vivo; settings: per os; for Activity (ear thickness inhibition) First Challenge: first oxazolone challenge; for Activity (ear thickness inhibition) Second Challenge: second oxazolone challenge, n.s. = non significant effect

| Compound | IC50 [1] | other results |
| --- | --- | --- |
| Nc1ccc(CCNc2nc(NCCCCCCO)nc(Nc3cccc(N)c3)n2)cc1 [Compound 1] | 93 nM | inhibition of the inflammation after the second challenge of oxazolone [2]: significant inhibition of the inflammation; Activity (ear thickness inhibition) First Challenge [2]: No effect; oral activity on DTH [3]: oral activity; Activity (ear thickness inhibition) First Challenge [3]: ↓ per os (p = 0.003); Activity (ear thickness inhibition) Second Challenge [3]: ↓ (n.s.)* |
| Nc1ccc(CNc2nc(NCCCCCCO)nc(Nc3cccc(N)c3)n2)cc1 [Compound 2] | 148 nM | Activity (ear thickness inhibition) Second Challenge [2]: No effect |
| Nc1ccc(CCNc2nc(NCCCCO)nc(Nc3cccc(N)c3)n2)cc1 [Compound 3] | 106 nM | inhibition of the inflammation after the second challenge of oxazolone [2]: significant inhibition of the inflammation; oral activity on DTH [3]: oral activity; Activity (ear thickness inhibition) First Challenge [3]: ↓ per os (p = 0.03); Activity (ear thickness inhibition) Second Challenge [3]: ↓ (n.s.) |
| NCCCCCCNc1nc(NCCc2ccc(N)cc2)nc(Nc2cccc(N)c2)n1 [Compound 4] | 300 nM |  |
| NCCNc1nc(NCCc2ccc(N)cc2)nc(Nc2cccc(N)c2)n1 [Compound 5] | 377 nM | oral activity on DTH [3]: oral activity; Activity (ear thickness inhibition) First Challenge [3]: ↓ per os (p = 0.008); Activity (ear thickness inhibition) Second Challenge [3]: ↓ (n.s.) |
| Nc1ccc(CCNc2nc(Nc3cccc(N)c3)nc(NC3CCC3)n2)cc1 [Compound 8] | 53 nM |  |
| Nc1ccc(CCNc2nc(Nc3cccc(N)c3)nc(NC3CCCC3)n2)cc1 [Compound 9] | 131 nM | Activity (ear thickness inhibition) Second Challenge [2]: No effect |
| Nc1ccc(CCNc2nc(NCc3cccc(N)c3)nc(Nc3cccc(N)c3)n2)cc1 [Compound 10] | 106 nM | Activity (ear thickness inhibition) Second Challenge [2]: No effect; oral activity on DTH [3]: oral activity; Activity (ear thickness inhibition) First Challenge [3]: No effect per os |
| Nc1ccc(CCNc2nc(NCc3ccc(N)cc3)nc(Nc3cccc(N)c3)n2)cc1 [Compound 11] | 85 nM |  |
| Nc1cccc(CNc2nc(Nc3cccc(N)c3)nc(Nc3cccc(N)c3)n2)c1 [Compound 12] | 3 nM | binding activity, in words [1]: potent binding activity |
| Nc1ccc(CNc2nc(Nc3cccc(N)c3)nc(Nc3cccc(N)c3)n2)cc1 [Compound 13] | 1 nM | binding activity, in words [1]: potent binding activity |
| COc1cccc(Nc2nc(NCCN)nc(Nc3cccc(N)c3)n2)c1 [Compound 14] | 306 nM |  |
| COc1ccc(Nc2nc(NCCN)nc(Nc3cccc(N)c3)n2)cc1 [Compound 15] | 415 nM |  |
| Nc1cccc(CNc2nc(N)nc(Nc3cccc(N)c3)n2)c1 [Compound 16] | 159 nM | Activity (ear thickness inhibition) First Challenge [2]: No effect; Activity (ear thickness inhibition) Second Challenge [2]: No effect |
| Nc1ccc(CNc2nc(N)nc(Nc3cccc(N)c3)n2)cc1 [Compound 17] | 65 nM |  |
| Nc1cccc(Nc2nc(N)nc(NCc3ccccc3N)n2)c1 [Compound 18] | 97 nM |  |
| Nc1cccc(Nc2nc(NCCCCCCO)nc(Nc3cccc(N)c3)n2)c1 [Compound 19] | 15 nM | Activity (ear thickness inhibition) First Challenge [2]: ↓ (n.s.); Activity (ear thickness inhibition) Second Challenge [2]: No effect |
| Nc1ccc(CCNc2nc(Nc3cccc(N)c3)nc(Nc3cccc(N)c3)n2)cc1 [Compound 20] | 65 nM |  |
| NCCNc1nc(Nc2cccc(N)c2)nc(Nc2cccc(N)c2)n1 [Compound 21] | 114 nM |  |
| COc1cccc(Nc2nc(NCCO)nc(Nc3cccc(N)c3)n2)c1 [Compound 22] | 63 nM |  |
| COc1ccc(Nc2nc(NCCO)nc(Nc3cccc(N)c3)n2)cc1 [Compound 23] | 86 nM |  |

| Compound | IC50 [1] | other results |
| --- | --- | --- |
| COc1cccc(Nc2nc(NCC3CC3)nc(Nc3cccc(N)c3)n2)c1 [Compound 24] | 243 nM |  |
| COc1ccc(Nc2nc(NCC3CC3)nc(Nc3cccc(N)c3)n2)cc1 [Compound 25] | 75 nM |  |
| COc1ccc(Nc2nc(Nc3cccc(N)c3)nc(NC3CC3)n2)cc1 [Compound 26] | 126 nM |  |
| COc1ccc(Nc2nc(N)nc(Nc3cccc(N)c3)n2)cc1 [Compound 27] | 292 nM |  |
| Nc1cccc(Nc2nc(NCCO)nc(Nc3ccc(F)cc3)n2)c1 [Compound 28] | 62 nM | Activity (ear thickness inhibition) First Challenge [2]: ↓ (n.s.) |
| Nc1cccc(Nc2nc(NCCO)nc(NCc3cccc(F)c3)n2)c1 [Compound 29] | 222 nM |  |
| Nc1cccc(CCNc2nc(NCC3CC3)nc(Nc3cccc(N)c3)n2)c1 [Compound 30] | 88 nM |  |
| Nc1cccc(Nc2nc(NCC3CC3)nc(Nc3cccc(N)c3)n2)c1 [Compound 31] | 38 nM | Activity (ear thickness inhibition) Second Challenge [2]: ↓ (n.s.) |
| Nc1cccc(Nc2nc(Nc3cccc(N)c3)nc(NC3CC3)n2)c1 [Compound 32] | 38 nM |  |
| Nc1cccc(Nc2nc(N)nc(Nc3cccc(N)c3)n2)c1 [Compound 33] | 170 nM |  |
| Nc1cccc(Nc2nc(NCCO)nc(Nc3cccc(N)c3)n2)c1 [Compound 34] | 42 nM |  |
| CN(C[C@H](O)[C@@H](O)[C@H](O)[C@H](O)CO)c1nc(Nc2cccc(N)c2)nc(Nc2cccc(N)c2)n1 [Compound 35] | 37 nM | Activity (ear thickness inhibition) Second Challenge [2]: No effect |
| NCCCCCCNc1nc(Nc2cccc(N)c2)nc(Nc2cccc(N)c2)n1 [Compound 36] | 68 nM |  |
| Nc1cccc(Nc2nc(NCCc3ccccc3N)nc(NCC3CC3)n2)c1 [Compound 38] | 312 nM |  |
| Nc1cccc(Nc2nc(NCCCCO)nc(Nc3cccc(N)c3)n2)c1 [Compound 39] | 40 nM |  |
| Nc1cccc(Nc2nc(NCCO)nc(Nc3cccc(F)c3)n2)c1 [Compound 41] | 36 nM |  |
| Nc1cccc(Nc2nc(NCCO)nc(NCc3ccc(F)cc3)n2)c1 [Compound 42] | 39 nM |  |
| Nc1cccc(Nc2nc(NCCO)nc(NCc3ccccc3F)n2)c1 [Compound 43] | 86 nM |  |
| Nc1cccc(Nc2nc(NCCO)nc(Nc3ccc(Cl)cc3)n2)c1 [Compound 44] | 56 nM |  |
| COc1cccc(Nc2nc(Nc3cccc(N)c3)nc(Nc3cccc(OC)c3)n2)c1 [Compound 45] | 469 nM |  |
| Protein A (Control): Staphylococcal protein A, cell-surface bacterial protein which binds the Fc (tail) portion of most antibodies [reference compound] | 187 nM |  |
